# Laboratory results: patent US9840512B2, “Antidiabetic bicyclic compounds” (Merck Sharp & Dohme Corp., priority 2013, dated 2017)
# Target: T1, human GPR40 (Homo sapiens, UniProt O14842)
# Test: Inositol Phosphate Turnover (IP1) Assay 2
# Assay type: cell-based
# Set-up: expressed in transfected cells
# Details: HEK cells stably expressing human GPR40, Table 2, read-out: Human IP1
# Outline: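 HEK cells stably expressing human GPR40 (aequorin reporter background) seeded and grown 16 h at 37 °C, then treated with compound in IP-One stimulation buffer for 60 min at 37 °C. IP1 accumulation detected by HTRF/FRET after 60 min with detection reagents in the dark.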
# T1 sequence (O14842 whole entry): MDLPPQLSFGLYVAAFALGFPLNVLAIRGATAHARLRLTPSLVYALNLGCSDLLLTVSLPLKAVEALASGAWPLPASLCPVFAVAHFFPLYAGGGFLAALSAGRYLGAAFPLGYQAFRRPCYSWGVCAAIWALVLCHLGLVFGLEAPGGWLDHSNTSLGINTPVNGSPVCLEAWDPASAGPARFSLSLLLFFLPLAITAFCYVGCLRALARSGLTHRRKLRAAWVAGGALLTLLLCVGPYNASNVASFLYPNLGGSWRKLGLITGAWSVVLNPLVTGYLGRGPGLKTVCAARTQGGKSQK
row,EC50 [nM],SMILES
1,11,COc1cc(-c2ccc(C3CCc4ccc([C@@H](CC(=O)O)C5CC5)cc4O3)cc2)c(F)cn1 (some centres unmarked) [Example 71]
2,116,COc1cc(F)cc(-c2ccc(C3CCc4ccc([C@@H](CC(=O)O)C5CC5)cc4O3)cc2)c1 (some centres unmarked) [Example 72]
3,1200,O=C(O)C[C@H](c1ccc2c(c1)OC(c1ccc(-c3cccc(OCC(F)(F)F)c3)cc1)CC2)C1CC1 (some centres unmarked) [Example 73]
4,19,COc1cc(-c2ccc(C3CCc4ccc([C@@H](CC(=O)O)C5CC5)cc4O3)cc2)ccn1 (some centres unmarked) [Example 74]
5,304,COc1cccc(-c2ccc(C3CCc4ccc([C@@H](CC(=O)O)C5CC5)cc4O3)cc2)n1 (some centres unmarked) [Example 75]
6,650,O=C(O)C[C@H](c1ccc2c(c1)OC(c1ccc(-c3cc(OC(F)(F)F)ccc3F)cc1)CC2)C1CC1 (some centres unmarked) [Example 76]
7,920,COc1cncc(-c2ccc(C3CCc4ccc([C@@H](CC(=O)O)C5CC5)cc4O3)cc2)n1 (some centres unmarked) [Example 77]
8,1700,O=C(O)C[C@H](c1ccc2c(c1)OC(c1ccc(-c3cccc(OC4CC4)c3)cc1)CC2)C1CC1 (some centres unmarked) [Example 78]
9,22,COc1cccc(-c2ccc(C3CCc4ccc([C@@H](CC(=O)O)C5CC5)cc4O3)cc2)c1 (some centres unmarked) [Example 79]
10,165,CSc1cccc(-c2ccc(C3CCc4ccc([C@@H](CC(=O)O)C5CC5)cc4O3)cc2)c1 (some centres unmarked) [Example 81]
11,54,COc1ccc(F)c(-c2ccc(C3CCc4ccc([C@@H](CC(=O)O)C5CC5)cc4O3)cc2)c1F (some centres unmarked) [Example 82]
12,1520,CCOc1cc(-c2ccc(C3CCc4ccc([C@@H](CC(=O)O)C5CC5)cc4O3)cc2)ccc1F (some centres unmarked) [Example 84]
13,217,"COc1ccc(F)c(-c2ccc(C3CCc4ccc(C(CC(=O)O)C5CC5)nc4O3)cc2)c1 (centres unmarked) [Example 136, 3-cyclopropyl-3-(2-(2′-fluoro-5′-methoxy-[1,1′-biphenyl]-4-yl)-3,4-dihydro-2H-pyrano[2,3-b]pyridin-7-yl)propanoic acid]"

row,SMILES,EC50 [nM]
1,"COc1ccc(F)c(-c2ccc(C3CCc4ccc([C@@H](CC(=O)O)C5CC5)cc4O3)cc2)c1 (stereo partly drawn) [Example 60, (3S)-3-cyclopropyl-3-(2-(2′-fluoro-5′-methoxy-[1,1′-biphenyl]-4-yl)chroman-7-yl)propanoic acid]",25

# Same assay, conditions: HEK cells stably expressing human GPR40, Table 3, read-out: Human IP1 activity
row,EC50 [nM],SMILES
1,0.5,"COc1ccc(F)c(-c2ccc(C3COc4ccc([C@H](C5CC5)[C@H](C)C(=O)O)cc4O3)cc2)c1 (single isomer, unassigned) [Example 174]"
2,774,"CC#C[C@@H](CC(=O)O)c1ccc2c(c1)OCC(c1ccc(-c3cc(OC)ccc3F)cc1)O2 (single isomer, unassigned) [Example 176]"
3,870,"CC#C[C@@H](CC(=O)O)c1ccc2c(c1)OCC(c1ccc(-c3cc(OC)ccc3F)cc1)O2 (single isomer, unassigned) [Example 177]"
4,2,"COc1ccc(F)c(-c2ccc(C3COc4ccc([C@H](C5CC5)[C@H](C)C(=O)O)c(F)c4O3)cc2)c1 (single isomer, unassigned) [Example 185]"
5,7.9,"COc1ccc(F)c(-c2ccc(C3COc4ccc([C@H](C5CC5)[C@H](C)C(=O)O)c(F)c4O3)cc2)c1 (single isomer, unassigned) [Example 186]"
6,1280,"C[C@H](C(=O)O)[C@H](c1ccc2c(c1)OC(C1CN(Cc3cc(C(F)(F)F)ccc3C(F)(F)F)C1)CO2)C1CC1 (single isomer, unassigned) [Example 187]"
7,5.2,"C[C@H](C(=O)O)[C@H](c1ccc2c(c1)OC(C1CN(Cc3cc(C(F)(F)F)ccc3C(F)(F)F)C1)CO2)C1CC1 (single isomer, unassigned) [Example 188]"
8,8.2,"COc1ccc(F)c(-c2ccc([C@@H]3COc4ccc([C@H](C5CC5)[C@H](C)C(=O)O)cc4O3)c(C(F)(F)F)n2)c1 [Example 162, (2S,3R)-3-cyclopropyl-3-((R)-3-(6-(2-fluoro-5-methoxyphenyl)-2-(trifluoromethyl)-pyridin-3-yl)-2,3-dihydrobenzo[b][1,4]dioxin-6-yl)-2-methylpropanoic acid]"
9,2.1,COc1ccc(F)c(-c2ccc([C@@H]3COc4ccc([C@H](C5CC5)[C@H](C)C(=O)O)cc4O3)cc2C(OC)C(C)(C)C)c1 (some centres unmarked) [Example 163]
10,8.2,COc1ccc(F)c(-c2ccc([C@@H]3COc4ccc([C@H](C5CC5)[C@H](C)C(=O)O)cc4O3)nc2C(F)(F)F)c1 [Example 164]
11,0.17,COc1ccc(F)c(-c2ccc(C3COc4ccc([C@H](C5CC5)[C@H](C)C(=O)O)cc4O3)cc2)c1 (some centres unmarked) [Example 170]
12,220,CC#C[C@@H](CC(=O)O)c1ccc2c(c1)OCC(c1ccc(-c3cc(OC)ccc3F)cc1)O2 (some centres unmarked) [Example 175]
13,10.6,COc1ccc(F)c(-c2ccc([C@@H]3COc4ccc([C@H](C5CC5)[C@H](C)C(=O)O)cc4O3)cc2Cl)c1 [Example 178]
14,16.3,COc1ccc(F)c(-c2ccc([C@H]3COc4ccc([C@H](C5CC5)[C@H](C)C(=O)O)cc4O3)cc2Cl)c1 [Example 179]
15,4.8,COc1ccc(F)c(-c2ccc([C@@H]3COc4ccc([C@H](C5CC5)[C@H](C)C(=O)O)cc4O3)cc2-c2cccc3ccn(C)c23)c1 [Example 180]
16,8.3,COc1ccc(F)c(-c2ccc([C@H]3COc4ccc([C@H](C5CC5)[C@H](C)C(=O)O)cc4O3)cc2-c2cccc3ccn(C)c23)c1 [Example 181]
17,99.6,COc1ccc(F)c(-c2ccc([C@H]3COc4ccc([C@H](C5CC5)[C@@H](C)C(=O)O)cc4O3)cc2Cl)c1 [Example 183]
18,1.6,COc1ccc(F)c(-c2ccc(C3COc4ccc([C@H](C5CC5)[C@H](C)C(=O)O)c(F)c4O3)cc2)c1 (some centres unmarked) [Example 184]
19,13.3,"C[C@H](C(=O)O)[C@H](c1ccc2c(c1)O[C@H](C1CN([C@H](C)c3cc(C(F)(F)F)ccc3C(F)(F)F)C1)CO2)C1CC1 [Example 189, (2S,3R)-3-((R)-3-(1-((R)-1-(2,5-bis(trifluoromethyl)phenyl)ethyl)azetidin-3-yl)-2,3-dihydrobenzo[b][1,4]dioxin-6-yl)-3-cyclopropyl-2-methylpropanoic acid]"
20,20.3,C[C@H](C(=O)O)[C@H](c1ccc2c(c1)O[C@H](C1CN([C@@H](C)c3cc(C(F)(F)F)ccc3C(F)(F)F)C1)CO2)C1CC1 [Example 190]

# Target: T1, human GPR40
# Test: FLIPR assay (agonist-induced calcium mobilization)
# Details: CHONFAT, read-out: Human FLIPR EC50, nM or % activation (% activation values)
# Procedure: Human and mouse GPR40 stable cell-lines were generated in CHO cells stably expressing NFAT BLA (Beta-lactamase). […] The expression plasmids were transfected using lipofectamine (Life Technologies) following manufacturer's instructions. Stable cell-lines were generated following drug selection.
# FLIPR (Fluorimetric Imaging Plate Reader, Molecular Devices) assays were performed to measure agonist-induced calcium mobilization of the stable clones. For the FLIPR assay, one day before assay, GPR40/CHO NFAT BLA cells were seeded into black-wall-clear-bottom 384-well plates (Costar) at 1.4×10e4 cells/20 μL medium/well. The cells were incubated with 20 μl/well of the assay buffer (HBSS, 0.1% BSA, 20 mM HEPES, 2.5 mM probenecid, pH 7.4) containing 8 μM fluo-4, AM, 0.08% pluronic acid at room temperature for 100 minutes. Fluorescence output was measured using FLIPR. Compounds were dissolved in DMSO and diluted to desired concentrations with assay buffer.
row,activation at 10 µM [%],SMILES
1,79,O=C(O)CCc1ccc2c(c1)CCC(c1ccccc1)O2 (racemic) [Example 2]
2,70,"Cc1cccc(C)c1-c1cccc(C2CC(=O)c3cc(CCC(=O)O)ccc3O2)c1 (racemic) [Example 7, 3-(2-(2′,6′-dimethyl-[1,1′-biphenyl]-3-yl)-4-oxochroman-6-yl)propanoic acid]"
3,12.5,COc1ccccc1C(CC(=O)O)c1ccc2c(c1)CCC(c1cccc(-c3c(C)cccc3C)c1)O2 (centres unmarked) [Example 45]

# Same assay, conditions: Human FLIPR EC50, nM or % activation (EC50 values), GPR40/CHO NFAT BLA cells
row,EC50 [nM],SMILES
1,1540,CC#CC(CC(=O)O)c1ccc2c(c1)CCC(c1ccc(C(F)(F)F)c(Cl)c1)O2 (mixture of isomers) [Example 18]
2,172,CC#CC(CC(=O)O)c1ccc2c(c1)CCC(c1nc(-c3cccnc3C(F)(F)F)ccc1F)O2 (mixture of isomers) [Example 20]
3,244,CC#CC(CC(=O)O)c1ccc2c(c1)CCC(c1cccc(-c3cccnc3C)c1)O2 (mixture of isomers) [Example 26]
4,162,CC#C[C@@H](CC(=O)O)c1ccc2c(c1)CCC(c1cc(-c3ccc(C(F)(F)F)cc3)ccc1F)O2 (mixture of isomers) [Example 29]
5,128,CC#C[C@@H](CC(=O)O)c1ccc2c(c1)CCC(c1cc(-c3cc(OC)ccc3F)ccc1F)O2 (mixture of isomers) [Example 30]
6,734,Cc1cccc(C)c1-c1cccc(C2CCc3cc(C(CC(=O)O)c4ccccn4)ccc3O2)c1 (mixture of isomers) [Example 34]
7,2040,Cc1cccc(C)c1-c1cccc(C2CCc3cc(C(CC(=O)O)C4CC4)ccc3O2)c1 (mixture of isomers) [Example 43]
8,1040,Cc1ccccc1-c1cccc(C2CCc3cc4c(cc3O2)OC[C@H]4CC(=O)O)c1F (mixture of isomers) [Example 58]
9,349,"Cc1cccc(C)c1-c1cccc(C2CC(F)(F)c3cc(CCC(=O)O)ccc3O2)c1 (racemic) [Example 8, 3-(2-(2′,6′-dimethyl-[1,1′-biphenyl]-3-yl)-4,4-difluorochroman-6-yl)propanoic acid]"
10,178,"CC#C[C@@H](CC(=O)O)c1ccc2c(c1)CCC(c1cc(-c3cccnc3C(F)(F)F)ccc1F)O2 (single isomer, unassigned) [Example 36]"
11,113,"CC#C[C@@H](CC(=O)O)c1ccc2c(c1)CCC(c1cccc(-c3c(C)noc3C)c1)O2 (single isomer, unassigned) [Example 39]"
12,255,"CC#C[C@@H](CC(=O)O)c1ccc2c(c1)CCC(c1cccc(-c3c(C)noc3C)c1)O2 (single isomer, unassigned) [Example 40]"
13,2140,"CC#CC(CC(=O)O)c1ccc2c(c1)OC(c1ccc(-c3c(C)cccc3C)cc1)CC2 (single isomer, unassigned) [Example 53]"
14,1090,"CC#CC(CC(=O)O)c1ccc2c(c1)OC(c1ccc(-c3c(C)cccc3C)cc1)CC2 (single isomer, unassigned) [Example 54]"
15,1920,"Cc1cccc(C)c1-c1cccc(C2CCc3cc(-c4cc(=O)[nH][s+]4[O-])ccc3O2)c1 [Example 9, (1R)-5-(2-(2′,6′-dimethyl-[1,1′-biphenyl]-3-yl)chroman-6-yl)isothiazol-3(2H)-one 1-oxide]"
16,1310,"Cc1cccc(C)c1-c1cccc(C2CCc3nc(CCC(=O)O)ccc3O2)c1 (centres unmarked) [Example 10, 3-(2-(2′,6′-dimethyl-[1,1′-biphenyl]-3-yl)-3,4-dihydro-2H-pyrano[3,2-b]pyridin-6-yl)propanoic acid]"
